Test system: mouse ES cells (ES-D3)
Experiment: Hepatocyte-specific gene expression in differentiated mouse ES cells, real-time quantitative RT-PCR
Details: also in murine ES cells
Experimental: Mouse ES cell line ES-D3 and mouse STO fibroblasts were obtained from the American Type Culture Collection, Manassas, Va. ES cells were expanded on STO fibroblast feeder layers in Dulbecco's modified Eagle's medium (DMEM) (unless specified, cell culture supplies were from Invitrogen, Carlsbad, Calif.) containing 15% fetal bovine serum (FBS), 1 mM L-glutamine, 60 μM non-essential amino acid solution, 0.1 mM 2-mercaptoethanol, 10 mM HEPES (Sigma-Aldrich, Saint Louis, Mo.), 1400 U/ml leukemia inhibitory factor (LIF) (Chemicon International, Temecula, Calif.), and penicillin/streptomycin at standard concentrations. To prepare feeder layers, STO fibroblasts were cultured until confluent and treated with 10 μg/ml mitomycin C (Sigma-Aldrich) for 4 hours. Mitomycin C-treated STO fibroblasts were then re-seeded at a density of 7-8×10^4/cm^2 one day before plating ES cells. […] These culture conditions stimulated the formation of non-attached embryoid bodies (EBs): Five days later, EBs were placed on different substratum pre-coated 6-well tissue culture plates in various media formulations, and the expression of hepatocyte-specific genes was examined at day 8-75 (FIG. 1A). Substrata used for pre-coating included gelatin, collagen type I (Sigma-Aldrich), collagen type IV, laminin, fibronectin and poly-D-lysine (Becton Dickinson Labware, Bedford, Mass.). The following culture media were tested for ES cells differentiation: DMEM, Williams' medium E (WME), and Iscove's modified Dulbecco's medium (IMDM), all supplemented with 10 to 20% FBS, 0.3 mM monothioglycerol (Sigma-Aldrich), penicillin/streptomycin at standard concentrations, and a range of growth and differentiation factors including hepatocyte growth factor (HGF, 20 ng/ml), nerve growth factor (NGF, 100 ng/ml), epidermal growth factor (EGF, 100 ng/ml), acidic fibroblast growth factor (aFGF, 100 ng/ml), basic fibroblast growth factor (bFGF, 100 ng/ml) (Li, X. et al., J. Cell. Biol. 153:811-822 (2001)), all-trans-retinoic acid (RA, 1 μM) (Makita, T. et al., Genes. Dev. 15:889-901 (2001)), oncostatin M (OnM, 10 ng/ml) (Kamiya, A. et al., EMBO. J. 18:2127-2136 (1999)), bovine insulin (0.126 U/ml), dexamethasone (100 nM) (all from Sigma-Aldrich), and human insulin (0.126 U/ml) (Eli Lilly and Company, Indianapolis, Ind.). Growth and differentiation factors were added to the culture media at final concentrations as indicated above. In addition, EBs were also cultured in medium that was previously used to induce multipotent adult progenitor cells (MAPC) from mouse bone marrow to differentiate into functional hepatocyte-like cells (Schwartz, R. E. et al., J. Clin. Invest. 109:1291-1302 (2002)).
Total RNA was extracted with RNeasy Mini Kit (Qiagen, Valencia, Calif.). Real time quantitative RT-PCR was employed for the determination of gene expression as described in detail previously by our group (Wege, H. et al., Gastroenterology 124:432-444 (2003)). In brief, one μg RNA was used to generate cDNA after treatment with deoxyribonuclease I (Invitrogen). First-strand synthesis was performed employing the Thermoscript RT-PCR System (Invitrogen) with random hexamers. Relative mouse or human gene expression analysis (ΔΔCT) was performed by real-time quantitative PCR with the ABI Prism 7700 Sequence Detection System and SYBR PCR Green Master Mix or TaqMan PCR Master Mix (Applied Biosystems, Foster City, Calif.). Primer pairs and hybridization probes for mouse or human albumin, prealbumin (transthyretin), alphal-antitrypsin (α1-AT), glucose-6-phosphatase (G6P), cytokeratin 19 (CK19), γ-glutamyl transferase (GGT), and β-actin, were synthesized, and primer concentrations were optimized for specific amplification at 60° C. […] Expression levels were normalized using mouse β-actin or human glyceraldehyde phosphate dehydrogenase (GAPDH) as an endogenous control. Normalized expression of hepatocyte-specific genes was compared to levels detected in primary adult mouse or human hepatocytes.

Compound	production of hepatocyte-specific proteins compared with bovine insulin
human insulin: human insulin (Eli Lilly and Company), growth factor added to the culture medium	higher production

Same assay, conditions: mouse ES cells, IMDM, collagen type I, day 33, FIG. 2A

Compound	albumin gene expression (effect of individual growth and differentiation factors)
CC1=C(/C=C/C(C)=C/C=C/C(C)=C/C(=O)O)C(C)(C)CCC1 [RA, all-trans-retinoic acid]	only minor positive or even negative effects
C[C@@H]1C[C@H]2[C@@H]3CCC4=CC(=O)C=C[C@]4(C)[C@@]3(F)[C@@H](O)C[C@]2(C)[C@@]1(O)C(=O)CO [dexamethasone, 9-fluoro-11β,17,21-trihydroxy-16α-methylpregna-1,4-diene-3,20-dione]	most effective
HGF: hepatocyte growth factor	only minor positive or even negative effects
NGF: nerve growth factor	only minor positive or even negative effects
aFGF: acidic fibroblast growth factor	only minor positive or even negative effects
bFGF: basic fibroblast growth factor	only minor positive or even negative effects
hEGF: human epidermal growth factor (NSDSECPLSHDGYCLHDGVCMYIEALDKYACNCVVGYIGERCQYRDLKWWELR; UniProt P01133 971-1023, looked up)	only minor positive or even negative effects
human insulin: human insulin (Eli Lilly and Company), growth factor added to the culture medium	most effective
mEGF: mouse epidermal growth factor (NSYPGCPSSYDGYCLNGGVCMHIESLDSYTCNCVIGYSGDRCQTRDLRWWELR; not fully specified; Epidermal growth factor; UniProt P01132 977-1029, looked up)	only minor positive or even negative effects

— patent publication US20050170502A1, “Methods for maintaining hepatocytes in culture and for differentiating embryonic stem cells along a hepatocyte lineage” (REGENTS OF THE UNIVERSITY OF CALIFORNIA, priority 2003, published 2005)
